From patent publication EP4707284A1, “HETEROCYCLIC COMPOUND AND USE THEREOF” (Otsuka Pharmaceutical Co., Ltd., priority 2023, dated 2024)

format: physicochemical; details: Tris-hydrochloric acid buffer (pH 7.5) 50 mmol/L, magnesium chloride 5 mmol/L, evaluation compound 1 µmol/L, 37°C, 60 minutes, average of duplicate
Protocol: The conversion from the evaluation compounds to brexpiprazole in a buffer (i.e., the stability of the evaluation compounds) was evaluated.
The Example 1 compound was dissolved in acetonitrile/water (1:1, v/v) to 10 mmol/L and further diluted with acetonitrile/water (1:1, v/v) to 100 µmol/L for use.
The other Example compounds and the Reference Example 5 compound to Reference Example 7 compound were each dissolved in DMSO to 10 mmol/L and further diluted with acetonitrile to 100 µmol/L for use, except for the following compounds.
The compounds of Examples 52, 95, 96, 117, and 130 (EX 52, EX 95, EX 96, EX 117, and EX 130) were dissolved in acetonitrile/water (8:2, v/v) to 10 mmol/L and further diluted with acetonitrile to 100 µmol/L for use.
The compound of Example 97 (EX 97) was dissolved in acetonitrile/water (8:2, v/v) to 10 mmol/L and further diluted with acetonitrile/water (8:2, v/v) to 100 µmol/L for use.
The compounds of Examples 15 and 116 (EX 15 and EX 116) were dissolved in DMSO to 1 mmol/L and further diluted with acetonitrile to 100 µmol/L for use.
These evaluation compound solutions were prepared at the time of use.
The reaction was conducted by preparing each reaction solution such that the final concentration of each component was as follows. The test was conducted in duplicate.
For the compounds of Examples 1 to 8, 10 to 19, 26 to 27, 37, 50, 87 to 89, 91, 116, 121, 123, 150, and 151 (EX 1 to EX 8, EX 10 to EX 19, EX 26 to EX 27, EX 37, EX 50, EX 87 to EX 89, EX 91, EX 116, EX 121, EX 123, EX 150, and EX 151), and the compounds of Reference Examples 5 to 7 (REX 5 to REX 7), the reaction solution without the evaluation compound (198 µl) was pre-incubated at 37°C for 3 minutes, and then each of the evaluation compound solutions (2 µl) was added and stirred; thereafter, the reaction was started at 37°C. At 0 minutes or 60 minutes after the start of the reaction, the reaction was stopped by adding and stirring a reaction stop solution (1000 µl) composed of acetonitrile/isopropanol (4:1, v/v) containing internal standard substances. However, the 0-minute reaction sample (198 µl) was prepared by adding the evaluation compound (2 µl) after adding the reaction stop solution (1000 µl). The samples after stopping the reaction were used as the measurement samples. Calibration curve samples with the same composition were prepared (final concentrations of the evaluation compounds and brexpiprazole: 0.01, 0.1, and 1 µmol/L, with the proviso that for the evaluation compounds only, the 0-minute reaction samples were also used as calibration curve samples for 1 µmol/L).
For the compounds of Examples 24 to 25, 28 to 29, 32 to 36, 40 to 49, 51 to 60, 62 to 64, 66 to 77, 80 to 86, 90, 92 to 111, 113, 115, 117 to 120, 122, 124 to 130, 132 to 147, and 152 to 160 (EX 24 to EX 25, EX 28 to EX 29, EX 32 to EX 36, EX 40 to EX 49, EX 51 to EX 60, EX 62 to EX 64, EX 66 to EX 77, EX 80 to EX 86, EX 90, EX 92 to EX 111, EX 113, EX 115, EX 117 to EX 120, EX 122, EX 124 to EX 130, EX 132 to EX 147, and EX 152 to EX 160), the reaction solution without the evaluation compound (148.5 µl) was pre-incubated at 37°C for 3 minutes, and then each of the evaluation compound solutions (1.5 µl) was added and stirred; thereafter, the reaction was started at 37°C. At 0 minutes or 60 minutes after the start of the reaction, the reaction was stopped by adding and stirring a reaction stop solution (600 µl) composed of acetonitrile/isopropanol (4:1, v/v) containing internal standard substances. However, the 0-minute reaction sample (148.5 µl) was prepared by adding the evaluation compound (1.5 µl) after adding the reaction stop solution (600 µl). The samples after stopping the reaction were used as the measurement samples. […]

Row | Structure (SMILES) | Concentration of brexpiprazole formed | Concentration of evaluation compound decreased
1 | CC(C)C(=O)OCOP(=O)([O-])OC[N+]1(CCCCOc2ccc3ccc(=O)[nH]c3c2)CCN(c2cccc3sccc23)CC1 [EX 24] | 0 nM | -110 nM
2 | O=C(O)CCCC(=O)OCOP(=O)([O-])OC[N+]1(CCCCOc2ccc3ccc(=O)[nH]c3c2)CCN(c2cccc3sccc23)CC1 [EX 70] | 0 nM | 0 nM
3 | O=c1ccc2ccc(OCCCC[N+]3(COP(=O)([O-])OCCOCC4CC4)CCN(c4cccc5sccc45)CC3)cc2[nH]1 [EX 52] | 0 nM | -40 nM
4 | O=c1ccc2ccc(OCCCC[N+]3(COP(=O)([O-])OC[C@H]4CC[C@H](CO)CC4)CCN(c4cccc5sccc45)CC3)cc2[nH]1 [EX 86] | 0 nM | 50 nM
5 | COCCOP(=O)([O-])OC[N+]1(CCCCOc2ccc3ccc(=O)[nH]c3c2)CCN(c2cccc3sccc23)CC1 [EX 12, (4-(benzo[b]thiophen-4-yl)-1-(4-((2-oxo-1,2-dihydroquinolin-7-yl)oxy)butyl)piperazin-1-ium-1-yl)methyl (2-methoxyethyl) phosphate] | 0 nM | 20 nM
6 | CC(O)CCOP(=O)([O-])OC[N+]1(CCCCOc2ccc3ccc(=O)[nH]c3c2)CCN(c2cccc3sccc23)CC1 (stereo not shown) [EX 40] | 0 nM | 60 nM
7 | O=c1ccc2ccc(OCCCC[N+]3(COP(=O)([O-])O)CCN(c4cccc5sccc45)CC3)cc2[nH]1 [EX 1, (4-(benzo[b]thiophen-4-yl)-1-((4-((2-oxo-1,2-dihydroquinolin-7-yl)oxy)butyl)piperazin-1-ium-1-yl)methyl hydrogen phosphate] | 0 nM | 0 nM
8 | CC(C)NC(=O)CCCC(=O)OCOP(=O)([O-])OC[N+]1(CCCCOc2ccc3ccc(=O)[nH]c3c2)CCN(c2cccc3sccc23)CC1 [EX 73] | 0 nM | 130 nM
9 | O=c1ccc2ccc(OCCCC[N+]3(COP(=O)([O-])OCCCCBr)CCN(c4cccc5sccc45)CC3)cc2[nH]1 [EX 62] | 0 nM | 180 nM
10 | Cc1ncccc1C(=O)OCOP(=O)([O-])OC[N+]1(CCCCOc2ccc3ccc(=O)[nH]c3c2)CCN(c2cccc3sccc23)CC1 [EX 81] | 0 nM | -30 nM
11 | CC1(C)OCC(C(=O)OCOP(=O)([O-])OC[N+]2(CCCCOc3ccc4ccc(=O)[nH]c4c3)CCN(c3cccc4sccc34)CC2)CO1 [EX 67] | 0 nM | 90 nM
12 | CC(C)(O)CCOP(=O)([O-])OC[N+]1(CCCCOc2ccc3ccc(=O)[nH]c3c2)CCN(c2cccc3sccc23)CC1 [EX 41] | 0 nM | 70 nM
13 | COc1ccc(C(=O)OCCCCCCOP(=O)([O-])OC[N+]2(CCCCOc3ccc4ccc(=O)[nH]c4c3)CCN(c3cccc4sccc34)CC2)cc1 [EX 58] | 0 nM | 40 nM

Second part, the compound after the results:

Row | Concentration of brexpiprazole formed | Concentration of evaluation compound decreased | Structure (SMILES)
14 | 0 nM | -10 nM | CCCOP(=O)([O-])OC[N+]1(CCCCOc2ccc3ccc(=O)[nH]c3c2)CCN(c2cccc3sccc23)CC1 [EX 88]
15 | 0 nM | 200 nM | CCOC(=O)[C@H](C)OP(=O)([O-])OC[N+]1(CCCCOc2ccc3ccc(=O)[nH]c3c2)CCN(c2cccc3sccc23)CC1 [EX 104]
16 | 0 nM | 90 nM | CCCC(=O)OCOP(=O)([O-])OC[N+]1(CCCCOc2ccc3ccc(=O)[nH]c3c2)CCN(c2cccc3sccc23)CC1 [EX 121]
17 | 0 nM | 50 nM | CCC(C)(C)C(=O)OCOP(=O)([O-])OC[N+]1(CCCCOc2ccc3ccc(=O)[nH]c3c2)CCN(c2cccc3sccc23)CC1 [EX 122]
18 | 0 nM | 130 nM | CCOCCOC(=O)OCOP(=O)([O-])OC[N+]1(CCCCOc2ccc3ccc(=O)[nH]c3c2)CCN(c2cccc3sccc23)CC1 [EX 132]
19 | 0 nM | -110 nM | CCCC(C)(C)C(=O)OCOP(=O)([O-])OC[N+]1(CCCCOc2ccc3ccc(=O)[nH]c3c2)CCN(c2cccc3sccc23)CC1 [EX 123]
20 | 0 nM | 80 nM | C[C@H](NP(=O)([O-])OC[N+]1(CCCCOc2ccc3ccc(=O)[nH]c3c2)CCN(c2cccc3sccc23)CC1)C(=O)OC(C)(C)C [EX 157]
21 | 0 nM | 50 nM | CCOC(=O)CCOC(=O)OCOP(=O)([O-])OC[N+]1(CCCCOc2ccc3ccc(=O)[nH]c3c2)CCN(c2cccc3sccc23)CC1 [EX 143]
22 | 0 nM | 60 nM | O=c1ccc2ccc(OCCCC[N+]3(COP(=O)([O-])OCCN4CCCCC4)CCN(c4cccc5sccc45)CC3)cc2[nH]1 [EX 118]
23 | 0 nM | 140 nM | O=c1ccc2ccc(OCCCC[N+]3(COP(=O)([O-])OCCN4CCC(F)(F)CC4)CCN(c4cccc5sccc45)CC3)cc2[nH]1 [EX 119]
24 | 0 nM | 50 nM | CC(C)OC(=O)[C@@H](C)OP(=O)([O-])OC[N+]1(CCCCOc2ccc3ccc(=O)[nH]c3c2)CCN(c2cccc3sccc23)CC1 [EX 105]
25 | 0 nM | 100 nM | O=C(OCOP(=O)([O-])OC[N+]1(CCCCOc2ccc3ccc(=O)[nH]c3c2)CCN(c2cccc3sccc23)CC1)C12CC3CC(CC(C3)C1)C2 [EX 124]
26 | 0 nM | 30 nM | CCCCOCCOP(=O)([O-])OC[N+]1(CCCCOc2ccc3ccc(=O)[nH]c3c2)CCN(c2cccc3sccc23)CC1 [EX 96]
27 | 0 nM | 170 nM | CCOC(=O)[C@H](C)NP(=O)([O-])OC[N+]1(CCCCOc2ccc3ccc(=O)[nH]c3c2)CCN(c2cccc3sccc23)CC1 [EX 156]
28 | 0 nM | -20 nM | O=C(OCCCOC1CCCCO1)OCOP(=O)([O-])OC[N+]1(CCCCOc2ccc3ccc(=O)[nH]c3c2)CCN(c2cccc3sccc23)CC1 (stereo not shown) [EX 140]
29 | 0 nM | -20 nM | CCOCCOC(=O)[C@@H](C)OP(=O)([O-])OC[N+]1(CCCCOc2ccc3ccc(=O)[nH]c3c2)CCN(c2cccc3sccc23)CC1 [EX 109]
